From PubChem BioAssay (NCI)
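Results reflect a 48-hour exposure of cells in 96-well plates to compound at five concentrations. TGI is the concentration that stops growth completely.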 *1 amine or outer side, *2 acyl side, *3 side chain or, on linkers, in order; H or OH if unused. Where a SMILES comes first, the peptide text is derived from it. [ ]: non-standard residue; d: D form. The star is where a group is joined. ξ: configuration not given here. X27 = O=C([C@H]1CCC[C@H]1N[*:1])[*:2]; ξW = NC(Cc1c[nH]c2ccccc12)C(=O)O; ξF = NC(Cc1ccccc1)C(=O)O; Boc = CC(C)(C)OC(=O)*; ξK = NCCCCC(N)C(=O)O; ξT = CC(O)C(N)C(=O)O; tBu = CC(C)(C)*

Experiments:
Test in all cases: growth of human tumour cells (NCI), 48 h
[1] = tested on: EKVX NSCLC
[2] = tested on: NCI-H23 lung
[3] = tested on: NCI-H460 lung
[4] = tested on: OVCAR-4 ovarian
[5] = tested on: PC-3 prostate
[6] = tested on: SF-268 CNS
[7] = tested on: SK-MEL-2 melanoma
[8] = tested on: SNB-75 CNS
[9] = tested on: SR leukemia
[10] = tested on: UACC-62 melanoma

SMILES	TGI [1]	TGI [2]	TGI [3]	TGI [4]	TGI [5]	TGI [6]	TGI [7]	TGI [8]	TGI [9]	TGI [10]
Cn1c2ccccc2n2c3ncccc3c(=NCCCC(=O)O)c(C#N)c12	> 100 µM	> 100 µM	> 100 µM	> 100 µM	> 100 µM	> 100 µM	> 100 µM	> 100 µM	> 100 µM	> 100 µM
CC(C)(C)n1c(=O)n2n(c1=O)Cc1cccc3cccc(c13)C2	> 100 µM	> 100 µM	23.9 µM	50.3 µM	30.5 µM	49.1 µM	38.2 µM	66.4 µM	42.3 µM	82.5 µM
CCN(CC)C(=O)Cn1c(-c2ccccc2)cc2ccccc21	> 100 µM	> 100 µM	> 100 µM	> 100 µM	> 100 µM	> 100 µM	> 100 µM	> 100 µM	> 100 µM	
O=C(c1ccccc1)c1ccc(N2C(=O)/C(=C/Cc3ccco3)N=C2c2ccccc2)c(N2C(=O)/C(=C/Cc3ccco3)N=C2c2ccccc2)c1	> 100 µM		> 100 µM	> 100 µM	> 100 µM	> 100 µM	58.6 µM	66.9 µM	> 100 µM	> 100 µM
C(/C=C/c1ccccc1)=Nc1ccc2c(c1)Cc1ccccc1-2	> 100 µM	> 100 µM	> 100 µM	> 100 µM	> 100 µM	> 100 µM	> 100 µM	> 100 µM	90.4 µM	> 100 µM
Cc1c2ccnc(C(=O)NCCN(C)C)c2cc2c3cc(O)ccc3n(C)c12	5.18 µM	1.7 µM	1.39 µM	2.22 µM	2 µM	2.28 µM	1.7 µM	2.19 µM	< 0.0564 µM	1.01 µM
O=C(NC(Cl)(C(F)(F)F)C(F)(F)F)c1ccc(F)cc1	> 100 µM	> 100 µM	> 100 µM	> 100 µM	> 100 µM	> 100 µM	> 100 µM	91.6 µM	> 100 µM	
O=[N+]([O-])c1ccc(-c2cc(O)c3nc4ccccc4n3c2)cc1	> 100 µM	> 100 µM	> 100 µM	> 100 µM	> 100 µM	> 100 µM	> 100 µM	> 76.2 µM	> 100 µM	> 31.6 µM
O=c1[nH]nc(Cc2ccc(Cl)cc2)n1/N=C/c1ccco1	> 100 µM	> 100 µM	> 100 µM	> 100 µM	> 100 µM	> 100 µM	> 100 µM	49.7 µM	> 100 µM	> 100 µM
CN(C)CCCC1c2ccccc2Oc2ccc(C(F)(F)F)cc21 (stereo unspecified)	31.3 µM	36.6 µM	31.8 µM	28.3 µM	27.1 µM	28.5 µM	28.5 µM	27.7 µM	24.5 µM	23.4 µM
O=C1NC(=S)N/C1=C\c1cc2c(=O)c3ccccc3sc2s1	> 100 µM	> 100 µM	> 100 µM	> 100 µM	> 100 µM	> 100 µM	> 100 µM	72 µM	> 100 µM	> 100 µM
O=c1ccn(CC2(CO)CCCC2)c(=O)[nH]1	> 100 µM	> 100 µM	> 100 µM	> 100 µM	> 100 µM	> 100 µM	> 100 µM	> 100 µM	> 100 µM	> 100 µM
COC(=O)c1c(C)cccc1C1CN=NC12Cc1ccccc1C2=O (stereo unspecified)	> 100 µM	> 100 µM	> 100 µM	> 100 µM	> 100 µM	> 100 µM	> 100 µM	> 100 µM	> 100 µM	> 100 µM
O=[N+]([O-])c1ccc2nc(Cl)n[n+]([O-])c2c1	39 µM	36.6 µM	43.3 µM	26.8 µM	28.4 µM	30.7 µM	29.2 µM	28.2 µM	4.93 µM	27.9 µM
S=C(NNC1=NCCCCN1)Nc1ccc(Cl)cc1	> 100 µM	> 100 µM	> 100 µM	> 100 µM	62.8 µM	> 100 µM	> 100 µM	> 100 µM	60.9 µM	18.9 µM
CC(OC(C)(C)C)C1NC(=O)C(CCCCNC(=O)OC(C)(C)C)NC(=O)C(Cc2c[nH]c3ccccc23)NC(=O)C(Cc2ccccc2)NC(=O)[C@H]2CCC[C@H]2NC(=O)C(Cc2ccccc2)NC1=O (stereo partly specified) (cyclo([X27][ξF][ξW][ξK](Boc)[ξT](tBu)[ξF]))	> 100 µM	> 100 µM	> 100 µM	> 100 µM	> 100 µM	> 100 µM	62.8 µM	> 100 µM	> 100 µM	> 100 µM
Cc1sc2[nH]c(=O)oc(=O)c2c1C	> 100 µM	> 100 µM	> 100 µM	> 100 µM	> 100 µM	> 100 µM	> 100 µM	> 100 µM	> 100 µM	> 100 µM

SMILES	TGI [1]	TGI [2]	TGI [3]	TGI [4]	TGI [5]	TGI [6]	TGI [7]	TGI [8]	TGI [9]	TGI [10]
CCCCc1ccc(Nc2nc(Cl)c3ncn(COCCOC(C)=O)c3n2)cc1	20.3 µM	31.4 µM	32.9 µM	> 100 µM	32.2 µM	36.9 µM	31.5 µM	44.3 µM	53.8 µM	31.9 µM
COc1ccc(NC(=S)N/N=C\c2ccc(NC(C)=O)cc2)cc1	> 100 µM	> 100 µM	> 100 µM	> 100 µM	> 100 µM		> 100 µM	> 100 µM	> 100 µM	> 100 µM
CCc1c(CN)c(CC)c(CNC2=NCCN2)c(CC)c1CNC1=NCCN1	> 100 µM	> 100 µM	> 100 µM	> 100 µM	> 100 µM	> 100 µM	> 100 µM	> 100 µM	> 100 µM	> 100 µM
Cc1ccc(S(=O)(=O)N2CCN(S(=O)(=O)c3ccc(C)cc3)CCN(S(=O)(=O)c3ccc(C)cc3)Cc3cc(C#N)c(C#N)cc3CN(S(=O)(=O)c3ccc(C)cc3)CC2)cc1	> 100 µM	> 100 µM	> 100 µM	> 100 µM	> 100 µM	> 100 µM		> 100 µM	> 100 µM	> 100 µM
O=C1c2cccnc2S(=O)(=O)N1c1ccc(Oc2ccccc2)cc1	> 100 µM	> 100 µM	> 100 µM	> 100 µM	> 100 µM	> 100 µM	> 100 µM	> 100 µM	> 100 µM	> 100 µM
COc1ccc(OC)c(CSc2ccc(OC)c(OC)c2)c1	> 100 µM	> 100 µM	> 100 µM	> 100 µM	> 100 µM	> 100 µM	> 100 µM	> 100 µM	> 100 µM	> 100 µM
C1=NCCN2CCN(CCN=Cc3ccccc3OCc3cccc(n3)COc3ccccc31)CC2	> 50 µM	> 50 µM	> 50 µM	26.6 µM	> 50 µM	21.1 µM	> 50 µM	32.5 µM	15.4 µM	7.8 µM
CC1(C)CC(O)C2=C(O1)C(=O)c1ncccc1C2=O (stereo unspecified)	6.76 µM	3.24 µM	5.89 µM	3.15 µM	9.57 µM	4.85 µM	6.74 µM	2.1 µM	> 19.8 µM	3.15 µM
CC(=O)OC(CN1CCN(c2ccccn2)CC1)Cn1sc2nc(C)cc(C)c2c1=O (stereo unspecified)	32.4 µM	43 µM	35.2 µM	55.4 µM	31.3 µM	32.9 µM	32.2 µM	32.8 µM	> 100 µM	30 µM
Cn1c(NNc2ccccc2)cc(=O)[nH]c1=O	> 100 µM	> 100 µM	> 100 µM	> 100 µM	> 100 µM	> 100 µM	> 100 µM	> 100 µM	> 100 µM	> 100 µM
Clc1c(Cl)c(Cl)c2c(nnn2C2CCCO2)c1Cl (stereo unspecified)	73.4 µM	49.3 µM	41.8 µM	54.5 µM	> 100 µM	> 100 µM	73.3 µM	40.3 µM	91.4 µM	> 100 µM
O=C(NC(=S)Nc1ccc2c(c1)Sc1ccccc1O2)c1ccc([N+](=O)[O-])cc1	> 100 µM	> 100 µM	> 100 µM	> 100 µM	> 100 µM	> 100 µM	> 100 µM	> 100 µM	> 100 µM	> 100 µM
OCc1cc2c(ccc3sc4ccc5sc6ccc7ncccc7c6c5c4c32)s1	29.7 µM		26.3 µM	89.2 µM	43.9 µM		31.3 µM	22.8 µM	> 100 µM	38.6 µM
NC(=O)C(=O)c1ncn(Cc2ccccc2)c1N	> 100 µM	> 100 µM	> 100 µM	> 100 µM	> 100 µM	> 100 µM	> 100 µM	> 100 µM	> 100 µM	> 100 µM
COc1ccc(CC2C3=C(CCN2C(=O)C2CCC2)CC2(CC3)OCCO2)cc1O (stereo unspecified)	> 100 µM	44.6 µM	> 100 µM	> 100 µM	> 100 µM	> 100 µM	> 100 µM	52.4 µM	> 100 µM	> 100 µM
CCOP(=O)(OCC)C(C)(C)N(C)/C(F)=N/C(F)(F)F	> 100 µM	> 100 µM	> 100 µM	> 100 µM	> 100 µM	> 100 µM	> 100 µM	> 100 µM	> 100 µM	> 100 µM
Cc1ccc(/C=N/n2c(Cc3ccccc3)n[nH]c2=O)cc1	> 100 µM	> 100 µM	> 100 µM	> 100 µM	> 100 µM	> 100 µM		> 100 µM	> 100 µM	
